Measurements as given in paper PMC10544575, “Inhibitory mechanism of vortioxetine on CYP450 enzymes in human and rat liver microsomes” (Frontiers in Pharmacology, 2023).
Where two headings read alike, the source gives them in different places.

Experiments:
Type in all cases: in vitro ADME
CYP2B = assay: IC50 of vortioxetine on CYP2B (bupropion) in RLMs; conditions: rat, rat liver microsomes, probe bupropion
Procedure: (§1) The components of the incubation system were as follows: 0.20 mg/mL HLMs or 0.20 mg/mL RLMs, 0.1 M Tris-HCl, vortioxetine, and the probe substrates of each enzyme. In the study of Km’s (Michaelis–Menten constant) experiment, midazolam (1, 2, 5, 10, 20, 50 and 100 μM in HLMs and RLMs) corresponded to CYP3A4/3A; bupropion (10, 20, 50, 100, 200, 500, 1,000 and 2000 μM in HLMs; 1, 2, 5, 10, 20, 50, 100 and 200 μM in RLMs) corresponded to CYP2B6/2B; amodiaquine (5, 10, 20, 50, 100 and 200 μM in HLMs; 10, 20, 50, 100, 200, 500 μM in RLMs) corresponded to CYP2C8/CYP2C-1; losartan (1, 2, 5, 10, 20, 50, 100, 200 μM in HLMs; 10, 20, 50, 100, 200, 500 and 1,000 μM in RLMs) corresponded to CYP2C9/CYP2C-2; mephenytoin (20, 50, 100, 200, 500 and 1,000 μM in HLMs; 5, 10, 20, 50, 100, 200, 500 and 1,000 μM in RLMs) corresponded to CYP2C19/CYP2C-3; and dextromethorphan (1, 2, 5, 10, 20, 50 and 100 μM in HLMs and RLMs) corresponded to CYP2D6/CYP2D. […]
(§2) All experiments results were detected by UPLC-MS/MS, which equipped with a Waters Acquity UPLC system (Milford, MA, United States) and a Waters Xevo TQ-S triple quadrupole tandem mass spectrometer with an electrospray ionization source (Milford, MA, United States). […]
(§3) IC50 values and enzyme kinetic parameters were calculated by Graphpad Prism 6.0 (GraphPad software Inc., CA, United States). […] Data for each experiment were expressed as mean ± SD (n = 3).

CYP2C8 = molecular target: T1, CYP2C8 (Homo sapiens, UniProt P10632); assay: Reversible inhibition kinetics (Lineweaver-Burk), CYP2C8 in HLMs; design: 0.20 mg/mL HLMs or 0.20 mg/mL RLMs; from tissue; host or cells: human liver microsomes
T1 sequence (P10632 1-490): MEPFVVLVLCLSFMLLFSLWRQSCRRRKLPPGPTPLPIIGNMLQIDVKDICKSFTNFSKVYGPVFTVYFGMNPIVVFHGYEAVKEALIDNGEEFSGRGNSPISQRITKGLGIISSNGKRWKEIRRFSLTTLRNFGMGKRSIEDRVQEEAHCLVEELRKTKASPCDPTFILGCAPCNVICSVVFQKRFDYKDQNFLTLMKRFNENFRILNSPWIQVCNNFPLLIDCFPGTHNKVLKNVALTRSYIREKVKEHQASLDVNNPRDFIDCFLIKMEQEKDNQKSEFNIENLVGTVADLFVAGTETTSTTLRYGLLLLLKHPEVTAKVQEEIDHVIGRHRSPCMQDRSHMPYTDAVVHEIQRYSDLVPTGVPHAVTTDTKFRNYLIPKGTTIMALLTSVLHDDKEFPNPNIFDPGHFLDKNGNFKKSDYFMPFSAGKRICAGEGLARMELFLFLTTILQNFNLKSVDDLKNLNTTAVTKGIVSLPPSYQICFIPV
Procedure: (§4) The components of the incubation system were as follows: 0.20 mg/mL HLMs or 0.20 mg/mL RLMs, 0.1 M Tris-HCl, vortioxetine, and the probe substrates of each enzyme. In the study of Km’s (Michaelis–Menten constant) experiment, midazolam (1, 2, 5, 10, 20, 50 and 100 μM in HLMs and RLMs) corresponded to CYP3A4/3A; bupropion (10, 20, 50, 100, 200, 500, 1,000 and 2000 μM in HLMs; 1, 2, 5, 10, 20, 50, 100 and 200 μM in RLMs) corresponded to CYP2B6/2B; amodiaquine (5, 10, 20, 50, 100 and 200 μM in HLMs; 10, 20, 50, 100, 200, 500 μM in RLMs) corresponded to CYP2C8/CYP2C-1; losartan (1, 2, 5, 10, 20, 50, 100, 200 μM in HLMs; 10, 20, 50, 100, 200, 500 and 1,000 μM in RLMs) corresponded to CYP2C9/CYP2C-2; mephenytoin (20, 50, 100, 200, 500 and 1,000 μM in HLMs; 5, 10, 20, 50, 100, 200, 500 and 1,000 μM in RLMs) corresponded to CYP2C19/CYP2C-3; and dextromethorphan (1, 2, 5, 10, 20, 50 and 100 μM in HLMs and RLMs) corresponded to CYP2D6/CYP2D. After 5.0 min of preincubation in the shaking water bath, the reaction was started with the addition of 1.0 mM NADPH. The incubated temperature at 37°C for 30 min. After the incubation, the enzyme reaction was stopped by cooling at −80°C, and 200 μL of acetonitrile and 20 μL of internal standard diazepam (200 ng/mL) were added for protein precipitation. The solution was fully vortexed and centrifuged at 13,000 × rpm for 10 min, and the supernatant was collected for data analysis by UPLC-MS/MS.
(§5) The inhibitory mechanism of the inhibitor on the enzyme was generally used by different concentrations of the inhibitor against different concentrations of the probe substrate. The concentrations of the inhibitor and the concentrations of probe substrates in the experiment were estimated based on IC50 and Km values, respectively.
(§6) In HLMs, the concentrations of the substrates midazolam, bupropion, amodiaquine, losartan, mephenytoin, and dextromethorphan were 1, 2, 4, 8 μM; 10, 20, 40, 80 μM; 0.8, 1.5, 3, 6 μM; 2, 4, 8, 16 μM; 20, 45, 90, 180 μM; 2.5, 5, 10, 20 μM, respectively. Corresponding to the concentration of vortioxetine were 2, 4, 9, 18 μM; 2, 4, 8, 16 μM; 4, 8, 15, 30 μM; 5, 10, 25, 50 μM; 0.6, 1.2, 2.5, 5 μM; 4.5, 9, 18, 36 μM, respectively.
All experiments results were detected by UPLC-MS/MS, which equipped with a Waters Acquity UPLC system (Milford, MA, United States) and a Waters Xevo TQ-S triple quadrupole tandem mass spectrometer with an electrospray ionization source (Milford, MA, United States). The chromatographic separation was performed on a Waters ACQUITY UPLC BEH C18 column (2.1 × 50 mm, 1.7 μm, Waters Corp.) at 40°C. The mobile phase was consisted of acetonitrile (A) and 0.1% formic acid in water (B). The gradient elution at a flow rate of 0.4 mL/min was conducted as follows: 0–0.5 min, 10% A; 0.5–1.0 min, 10%–90% A; 1.0–2.0 min, 90% A; 2.0–2.1 min, 90%–10% A, and 2.1–3.0 min, 10% A. The relevant analysis parameters were shown in Table 1.
IC50 values and enzyme kinetic parameters were calculated by Graphpad Prism 6.0 (GraphPad software Inc., CA, United States). Lineweaver-Burk Plot was used to determine inhibitor patterns. Dixon plots of Ki values were obtained from the slope of the nonlinear regression line in the Lineweaver-Burk plot as a function of different inhibitor concentrations, while secondary plots for αKi were obtained from the y-intercept of the nonlinear regression line in Lineweaver-Burk Plot versus concentration of different inhibitors. Data for each experiment were expressed as mean ± SD (n = 3).

CYP2C-1 = assay: IC50 of vortioxetine on CYP2C-1 (amodiaquine) in RLMs; conditions: rat, rat liver microsomes, probe amodiaquine
Procedure: as §1, §2, §3

CYP2C9 = CYP2C9 (Homo sapiens, UniProt P11712); assay: Reversible inhibition kinetics (Lineweaver-Burk), CYP2C9 in HLMs; design: 0.20 mg/mL HLMs; from tissue; host or cells: human liver microsomes; conditions: losartan
Procedure: as §4, §5, §6
as §2, with “States). The chromatographic separation was performed on a Waters ACQUITY UPLC BEH C18 column (2.1 × 50 mm, 1.7 μm, Waters Corp.) at 40°C.” for “States).”
as §3

[1] = inhibitory effect (strength judged by IC50), RLMs

Sequence of CYP2C9 (P11712 whole entry): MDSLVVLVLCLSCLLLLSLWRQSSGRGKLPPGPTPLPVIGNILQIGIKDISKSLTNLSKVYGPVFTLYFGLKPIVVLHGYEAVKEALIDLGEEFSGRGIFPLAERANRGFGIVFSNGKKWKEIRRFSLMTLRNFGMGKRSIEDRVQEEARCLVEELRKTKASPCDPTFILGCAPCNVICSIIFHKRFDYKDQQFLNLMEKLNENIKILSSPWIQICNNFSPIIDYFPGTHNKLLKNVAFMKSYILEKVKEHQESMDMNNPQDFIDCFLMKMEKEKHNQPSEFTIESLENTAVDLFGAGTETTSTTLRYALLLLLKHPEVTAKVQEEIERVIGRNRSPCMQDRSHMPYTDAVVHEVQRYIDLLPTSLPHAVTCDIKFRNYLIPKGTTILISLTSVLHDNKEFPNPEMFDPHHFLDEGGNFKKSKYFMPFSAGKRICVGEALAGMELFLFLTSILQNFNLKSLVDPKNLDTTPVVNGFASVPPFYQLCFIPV

IC50 at 30 min (CYP2B; RLMs 0.20 mg/mL, bupropion at Km, 37°C, 30 min, read-out: IC50): 8.89 µM | IC50 at 30 min (CYP2B; [1]): 1 to 10 µM | Ki (CYP2C8; amodiaquine): 6.96 µM | α (CYP2C8; amodiaquine): 1.94 | Inhibition type (CYP2C8; amodiaquine, Lineweaver-Burk plot): noncompetitive inhibition | αKi (CYP2C8; amodiaquine, secondary plot of y-intercepts): 13.48 µM | Ki at 30 min (CYP2C8; human, human liver microsomes, probe amodiaquine): 2.96 µM | IC50 at 30 min (CYP2C-1; RLMs 0.20 mg/mL, amodiaquine at Km, 37°C, 30 min, read-out: IC50): 22.2 µM | IC50 at 30 min (CYP2C-1; [1]): > 10 µM | Ki (CYP2C9): 4.17 µM | α (CYP2C9): 15.94 | Inhibition type (CYP2C9; Lineweaver-Burk plot): mixed inhibition | αKi (CYP2C9; secondary plot of y-intercepts): 66.5 µM
Structure (SMILES): Cc1ccc(Sc2ccccc2N2CCNCC2)c(C)c1 [vortioxetine]
